Read-outs that look alike come from different tables or passages of the source.
Experiments:
melanocyte line MeWo = assay: Protection of PGF2α in melanocyte line MeWo; format: cell-based; settings: 4 hours, MeWo melanocytes
Method: An ampoule of Mewo melanocytes (American type cell collection, HTB-65) is amplified (75 cm^2 flask, Costar), in DMEM medium (Gibco)+10% fetal calf serum+2 mM of L-glutamine+1% of antibiotics (Gibco). After confluence, these cells (48 hours to 72 hours) are resuspended in this same culture medium, after the action of trypsin (according to a procedure conventionally used in cell culture), in a proportion of 600 000 cells per ml.
200 μl of this suspension are introduced into n times 6 wells (n being the total number of assays, i.e., x molecules at 2 concentrations) of a 96-well plate (Costar). The plate is placed in an incubator at 37° C. under 5% CO2.
Preparation, in DMSO of the 1000× stock solutions of the active agents to be evaluated (i.e., 5 and 25 mM).
Removal of the supernatants from the cultures previously prepared (96-well plate), and rinsing with 100 μl/well of DMEM medium+additives (see above description) preheated to 37° C.
Introduction of 100 μl/well of DMEM medium (+additives) containing 0.1 μl of DMSO (control) or 0.1 μl of the stock solution of the active agent to be evaluated (there are 6 assay wells per molecule and per concentration).
Practically 1 ml of solution is prepared for each of the active agents (and per concentration) to be tested, therefore 1 ml of medium+1 μl of DMSO (control) or of 1000× stock solution.
The plate is again placed in an incubator at 37° C. under 5% CO2 for 4 hours, and then a PGF2α assay is carried out on 50 μl of each of the supernatants (of the various assays) by means of an immunoenzymatic kit (according to the supplier's recommendations (PGF2α, EIA kit, ref. 516011, Cayman)).
Results (as % of the amount of PGF2α measured under the control conditions): […]

PGF synthase (PGFS) = target: T1, PGF synthase (PGFS) (Homo sapiens, UniProt P42330); assay: Test on PGFS (PGF synthase; phenanthrenequinone/NADPH, 340 nm); format: biochemical
T1 sequence (P42330 1-323): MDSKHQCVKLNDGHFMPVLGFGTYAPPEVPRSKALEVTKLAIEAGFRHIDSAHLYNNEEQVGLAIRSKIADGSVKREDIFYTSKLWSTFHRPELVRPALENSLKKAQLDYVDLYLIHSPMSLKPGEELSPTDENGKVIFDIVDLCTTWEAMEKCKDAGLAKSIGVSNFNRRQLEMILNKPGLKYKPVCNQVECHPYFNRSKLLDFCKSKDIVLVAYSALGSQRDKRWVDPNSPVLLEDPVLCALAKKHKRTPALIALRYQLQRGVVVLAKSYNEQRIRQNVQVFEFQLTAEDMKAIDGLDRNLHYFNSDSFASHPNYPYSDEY
Method: The PGF synthase enzyme is obtained as described in FR-A-02/05067, at a concentration of 0.5 mg/ml, in suspension in an appropriate medium, and is blocked at −80° C. For the needs of the test, this suspension is thawed and stored in ice.
Moreover, a 100 mM Tris buffer, pH=6.5, containing 20 μM of 9.10-phenanthrenequinone* (P2896, Sigma-Aldrich, L′ isle D'Abeau Chesne, BP 701, 38297, Saint Quentin Fallavier) and 100 μM of β-NAPDH(N1630, Sigma-Aldrich, L'isle D'Abeau Chesne, BP 701, 38297, Saint Quentin Fallavier), is prepared in a brown bottle (exclusion of light).
*A stock solution having a titer of 1 mM is prepared in absolute ethanol, brought to 40° C.; the flask is placed in an ultrasound tank so as to facilitate solubilization of the product.
0.950 ml of this buffer (brought beforehand to 37° C.) is introduced into the cuvette of a spectrophotometer (Perkin-Elmer, Lambda 2) thermostatically controlled at 37° C., the measuring wavelength of which is set at 340 nm. 0.05 ml of enzymatic suspension at 37° C. is introduced into the cuvette concomitantly with the recording (corresponding to a decrease in optical density at 340 nm). The maximum reaction rate is recorded. […]

15-PGDH = target: T2, 15-PGDH (Homo sapiens, UniProt P15428); assay: 15-PGDH test (spectrophotometric, NADH at 340 nm, PGE2 substrate); format: biochemical; settings: Example I-5
T2 construct: GST (from vector pGEX-4T3); made in house; host or cells: E. coli BL21 DE3plys
T2 sequence (P15428 1-266): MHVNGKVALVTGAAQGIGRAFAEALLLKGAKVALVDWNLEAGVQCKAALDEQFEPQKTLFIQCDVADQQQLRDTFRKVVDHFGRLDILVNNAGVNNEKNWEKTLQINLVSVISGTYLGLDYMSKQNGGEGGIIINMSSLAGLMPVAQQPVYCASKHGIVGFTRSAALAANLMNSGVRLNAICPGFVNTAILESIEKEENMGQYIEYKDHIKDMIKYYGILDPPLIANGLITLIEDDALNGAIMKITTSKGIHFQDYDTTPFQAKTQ
Method: The enzyme obtained is at a concentration of 0.3 mg/ml and is blocked at −80° C. This suspension is thawed and stored in ice.
A 100 mM Tris buffer, pH—7.4, containing 0.1 mM of dithiothreitol (D5545, Sigma-Aldrich, L'isle D'Abeau Chesne, BP 701, 38297, Saint Quentin Fallavier), 1.5 mM of 13-NAD (N6522, Sigma-Aldrich, L'isle D'Abeau Chesne, BP 701, 38297, Saint Quentin Fallavier) and 50 μM of prostaglandin E2 (P4172, Sigma-Aldrich, L'isle D'Abeau Chesne, BP 701, 38297, Saint Quentin Fallavier) is prepared.
0.965 ml of this buffer (brought to 37° C. beforehand) is placed in the cuvette of a spectrophotomer (Perkin-Elmer, Lambda 2) thermostated at 37° C., the measuring wavelength of which is set at 340 nm. 0.035 ml of enzyme suspension at 37° C. is placed in the cuvette concomitantly with the recording (increase in optical density at 340 nm).
The maximum reaction rate is recorded.
The assay values (molecules) are compared with the control value (without molecule), and the results are expressed as % of the control value.
The assay is carried out as described in example 4a.
The methodology is that described in example 1-5.

| Structure (SMILES) | % of the amount of PGF2α measured under the control conditions (melanocyte line MeWo; 5 μM) | % of the amount of PGF2α measured under the control conditions (melanocyte line MeWo; 25 μM) | other results |
| --- | --- | --- | --- |
| COC(=O)c1cc(/N=N/c2ccc(O)c(CC(=O)O)c2)cc(C(=O)OC)c1 [PhCL28A, reference compound] | +43% | +147% |  |
| O=C1NC(=O)/C(=C/c2ccc(-c3ccc(C(=O)O)cc3)o2)S1 [Compound 1, 4-{5-[(2,4-dioxo-1,3-thiazolidin-5-ylidene)methyl]-2-furyl}benzoic acid] |  |  | IC50 (PGF synthase (PGFS); Example I-5, read-out: Inhibition of PGFS IC50fs): 4 µM; IC50 (15-PGDH; read-out: Inhibition 15-PGDH IC50dh): 0.3 µM |
| O=C1NC(=O)/C(=C/c2ccc(-c3ccc(C(=O)O)cc3)o2)S1 [Compound 1a of example I] | +67% | +51% |  |
| COc1ccccc1/C=C(\C#N)c1nn(-c2ccccc2)c(N)c1C#N [Compound 9 of example II] |  |  | IC50 (PGF synthase (PGFS); Example II-2, read-out: Inhibition of PGF synthase IC50fs): > 50 µM |
| O=C1NC(=O)C(=Cc2ccc(-c3ccc(C(=O)O)cc3)o2)S1 [Compound 1 of example I, 4-{5-[(2,4-dioxo-1,3-thiazolidin-5-ylidene)methyl]-2-furyl}benzoic acid] |  |  | IC50fs/IC50dh ratio (15-PGDH; selectivity for 15-PGDH with respect to PGFS): greater than 13 |
